Like-named read-outs stand apart in the source and are kept apart here.

The results in this text go back to patent publication US5500430A, “Amidic derivatives of glutamic, aspartic and 2-amino adipic acids, a process for preparing same, and anti-gastrin composition containing the derivatives” (Rotta Research Laboratorium S.p.A., priority 1990, dated 1996).

For assay [1], the target named is T1, gastrin receptor sites on the cerebral cortex membranes of mice (Mus musculus, UniProt P56481).
T1 construct: Mouse cortical tissue; from tissue; host or cells: mouse cerebral cortex membranes
T1 sequence (P56481 1-453): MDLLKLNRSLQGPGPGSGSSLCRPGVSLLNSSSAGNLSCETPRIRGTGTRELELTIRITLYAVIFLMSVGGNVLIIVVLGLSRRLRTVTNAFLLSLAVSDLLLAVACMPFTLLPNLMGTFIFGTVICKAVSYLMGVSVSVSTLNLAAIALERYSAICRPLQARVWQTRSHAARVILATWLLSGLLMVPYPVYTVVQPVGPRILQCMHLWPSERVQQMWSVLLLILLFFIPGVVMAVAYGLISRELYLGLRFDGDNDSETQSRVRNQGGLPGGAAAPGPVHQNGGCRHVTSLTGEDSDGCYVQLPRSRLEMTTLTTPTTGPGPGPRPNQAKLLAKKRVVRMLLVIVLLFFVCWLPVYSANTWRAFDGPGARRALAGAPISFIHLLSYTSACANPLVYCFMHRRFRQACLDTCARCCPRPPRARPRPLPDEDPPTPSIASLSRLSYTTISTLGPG
As to the kind of experiment: Inhibition of the binding of pentagastrin to mouse cortical membranes. From the text: Tests on binding to cerebral cortex membranes of mice
The capacities of some of the compounds of the invention to inhibit the binding of pentagastrin to the gastrin receptor sites on the cerebral cortex membranes of mice was to be evaluated. Pentagastrin tritiate[beta-alanyl-3-3H(N)] was used as the ligand.
Mouse cortical tissue Was homogenised cold in 20 volumes of tris buffer (pH 7.7). After washing and centrifuging, the final pellet was resuspended in 20 volumes of binding buffer containing, inter alia, TRIS, BSA and Bacitracin. 0.4 ml of the membrane thus obtained were then incubated with a radioactive tracer and the compounds under test for 40 minutes at 37° C.
After the supernatant liquid had been removed by centrifuging, the radioactivity associated with the pellet was determined with a liquid scintillator (a beta-counter). The specific binding was the difference between the binding in the absence and in the presence of 10^-5M pentagastrin.

The subject of assay [2] is guinea-pig gall bladder contracted with CCK-8. As to the kind of experiment: Anticholecystokinin (anti-CCK) activity on guinea-pig gall bladders stimulated by CCK-8 in vitro. As to conditions: for Anti-CCK activity IC50: CCK-8 concentration 10 ng/ml, Krebs, 32° C.; for Antagonism of contracturant activity of CCK-8 relative to lorglumide (in words): vs lorglumide. The procedure: Anticholecystokinin (anti-cc, K) activity
In order to confirm the hypothesis that the molecular conformations of the compounds of the invention are suitable to provide them with antagonistic activity towards CCK as well as towards gastrin, the anticontracturant activities of some of the compounds of the invention were tested on guinea-pig gall bladders stimulated by CCK-8 in vitro.
A longitudinal strip of guinea-pig gall bladder was placed in a bath for isolated organs in the presence of Krebs at a temperature of 32° C. and oxygenated continuously with an oxygen-CO2 mixture (95-5 V/V).
The isometric contractions were detected by means of a force transducer and recorded.
The gall bladder was contracted with the use of a concentration of 10 ng/ml of CCK-8; the antagonistic activities of the compounds towards the contracturant effect of the CCK was determined with the use of different concentrations, thus determining the IC50 values, that is, the concentration of the compound in mcg/ml which can antagonise the contracturant effect of CCK by 50%.

For assay [3], the system named is gastric acid secretion induced by pentagastrin. As to the kind of experiment: Antisecretive activity in anaesthetised rats (pentagastrin-stimulated gastric acid secretion). The assay is classed as in vivo. As to conditions: pentagastrin 30 mcg/Kg/h; for ED50: Rattus norvegicus, iv, anaesthetised male rats, I.V. bolus, IN with bound, read-out: Antagonistic activity (ID50) towards gastric acid secretion induced by pentagastrin; for Antigastrin activity (in words): anaesthetised rats. Here is the method: Antisecretive activity in anaesthetised rats
Antisecretive activity in rats was determined with the use of male animals each weighing about 200 g, anaesthetised with urethane. Gastric secretion was stimulated with pentagastrin. The method of K. S. Lai (Gut 5, (1964), 327-341) was used, slightly modified.
After tracheotomy, cannulae were inserted in the oesophagus and the duodenum. A tepid solution. (37° C.) of 0.25 mM NaOH was perfused and passed through the stomach by means of a peristaltic pump at a constant flow rate of 1 ml/minute. After stabilisation for 20 minutes, the stimulating agent, dissolved in a physiological solution, was perfused for 120 minutes at a dose of 30 mcg/Kg/h in a volume of 0.95 ml/hour. After perfusion for 60 minutes (the basal stimulation), the product under test was administered as an intravenous bolus (I.V.) and the perfusion of the stimulant continued for a further 60 minutes. Acid secretion was recorded continuously as a function of time.
The activity of the product was evaluated as the percentage reduction in the secreted acidity after the administration of the product compared with the base acidity measured during the first 60 minutes of collection during which only the pentagastrin was present.
Different doses of the antagonist compounds tested were administered so that an ID50, that is, the dose (in mg/Kg I.V.) capable of inhibiting the effect of pentagastrin by 50%, could be calculated.
The results thus obtained are illustrated in the following table (Table 1) in which the activities of the compounds are expressed as the ID50s under the stimulus of 30 mcg/Kg/h of pentagastrin.

The mark [4] stands for this setting: pentagastrin tritiate ligand, 40 minutes at 37° C., read-out: IC50, inhibition of the binding of pentagastrin.

Consider `O=C(O)CC[C@@H](NC(=O)c1cnc2ccccc2c1)C(=O)N1CCC2(CCCCC2)CC1` [Compound C21], for which the IC50 in assay [1] (setting [4]) was 510 nM. In addition, in assay [2], the “Anti-CCK activity IC50” value amounted to 0.2 µg/mL and the “Antagonism of contracturant activity of CCK-8 relative to lorglumide (in words)” value is recorded as “at concentrations no greater than those shown by lorglumide”. Further, the ED50 in assay [3] is more than 75 mg/kg.

For the compound `O=C(O)CC[C@@H](NC(=O)c1cnc2ccccc2c1)C(=O)N1CCC2(CCCC2)CC1` [Compound C19], in assay [2], the “Anti-CCK activity IC50” value was found to be 1.5 µg/mL and the “Antagonism of contracturant activity of CCK-8 relative to lorglumide (in words)” value was “at concentrations no greater than those shown by lorglumide”. Moreover, the ED50 in assay [3] worked out at 68 mg/kg.

Take `O=C(O)CC[C@@H](NC(=O)c1cccc(Cl)c1)C(=O)N1CCC2CCCCC2C1` (stereo partly drawn) [Compound C29]: in assay [1] (setting [4]), the IC50 turned out to be 800 nM. Moreover, the “Anti-CCK activity IC50” value in assay [2] is 234 µg/mL. In addition, the ED50 in assay [3] was found to be 35 mg/kg.

`O=C(O)CCC(NC(=O)c1cccc(Cl)c1)C(=O)N1CCC2(CC1)OCC(CO)O2` (stereo not drawn) [Compound D2] came in with an IC50 in assay [1] of more than 10000 nM. In assay [2], the “Anti-CCK activity IC50” value came out at 108 µg/mL. Further, in assay [3], the ED50 worked out at 85 mg/kg.

For the compound `O=C(O)CC(NC(=O)c1cccc(Cl)c1)C(=O)N1CCC2(CCCC2)CC1` (stereo not drawn) [Compound D4], in assay [1] (setting [4]), the IC50 amounted to 6800 nM. Further, in assay [2], the “Anti-CCK activity IC50” value is 36 µg/mL. Further, the ED50 in assay [3] was 70 mg/kg.

In the case of `O=C(O)CC[C@@H](NC(=O)c1ccc(Cl)c(Cl)c1)C(=O)N1CCC2(CCCCC2)CC1` [Compound C20], in assay [2], the “Anti-CCK activity IC50” value was found to be 0.5 µg/mL and the “Antagonism of contracturant activity of CCK-8 relative to lorglumide (in words)” value was “at concentrations no greater than those shown by lorglumide”. Also, in assay [3], the ED50 amounted to 64 mg/kg.

In the case of `O=C(O)CC[C@@H](NC(=O)c1cccc(Cl)c1)C(=O)N1CCC2(CCCCC2)CC1` [Compound C2], the IC50 in assay [1] (setting [4]) came to 140 nM. In assay [2], the “Anti-CCK activity IC50” value came out at 4.9 µg/mL. Also, the ED50 in assay [3] was 33 mg/kg.

As for `O=C(O)CC[C@@H](NC(=O)c1cc(Cl)cc(Cl)c1)C(=O)N1CCC2(CCCCC2)C1` [Compound C6], the IC50 in assay [1] (setting [4]) worked out at 320 nM. Also, the ED50 in assay [3] turned out to be 45 mg/kg.

Regarding `O=C(O)CCCC(NC(=O)c1cccc(Cl)c1)C(=O)N1CCC2(CCCC2)CC1` (stereo not drawn) [Compound D5], the IC50 in assay [1] (setting [4]) is 1500 nM. For the same compound, in assay [3], the ED50 turned out to be 32 mg/kg.

As to `O=C(O)CC[C@@H](NC(=O)c1ccc2ccccc2c1)C(=O)N1CCC2(CCCC2)CC1` [Compound C10], the half-inhibitory concentration (IC50) in assay [1] (setting [4]) is 100 nM. In assay [2], the “Anti-CCK activity IC50” value was 1.0 µg/mL and the “Antagonism of contracturant activity of CCK-8 relative to lorglumide (in words)” value is on record as “at concentrations no greater than those shown by lorglumide”. Also, the ED50 in assay [3] turned out to be 45 mg/kg.

For the compound `O=C(O)CC[C@@H](NC(=O)c1cccc(Cl)c1)C(=O)NCCC12CC3CC(CC(C3)C1)C2` [Compound C30], the IC50 in assay [1] (setting [4]) is 30 nM. In assay [2], the “Anti-CCK activity IC50” value is 59 µg/mL. Besides, in assay [3], the ED50 stood at 25 mg/kg and the “Antigastrin activity (in words)” value is given as “particularly favourable”.

For the compound `O=C(O)CC[C@@H](NC(=O)c1cccc(Cl)c1)C(=O)N1CCC2(CCCC2)C1` [Compound C3], the “Anti-CCK activity IC50” value in assay [2] came to 43 µg/mL. Further, the ED50 in assay [3] came out at 75 mg/kg.

As to `O=C(O)CC[C@H](NC(=O)c1cccc(Cl)c1)C(=O)N1CCC2(CCCC2)CC1` [Compound C32], the IC50 in assay [1] (setting [4]) worked out at 26000 nM. In addition, in assay [3], the ED50 was more than 100 mg/kg and the “Antigastrin activity (in words)” value was “completely inactive up to a dose of 100 mg/Kg”.

Take `O=C(O)CCC(NC(=O)c1cccc(Cl)c1)C(=O)N1CCC2(CC1)SCCS2` (racemic) [Compound D1, (R,S) (±)-4-[(3-chlorobenzoyl)amino]-5-(1.4-dithia-8-azaspiro[4.5]decan-8-yl)-5-oxopentanoic acid]: the IC50 in assay [1] (setting [4]) was 2600 nM. In assay [3], the ED50 is more than 75 mg/kg.

Consider `O=C(O)CC[C@@H](NC(=O)c1cc(Cl)cc(Cl)c1)C(=O)NC1CCC2(CCCCC2)CC1` [Compound C23], for which the IC50 in assay [1] (setting [4]) stood at 320 nM. Besides, in assay [3], the ED50 is 40 mg/kg.

For `CCCCCN(CCCCC)C(=O)C(CCC(=O)O)NC(=O)c1ccc(Cl)c(Cl)c1` (stereo not drawn) [Lorglumide, lorglumide, reference compound], the “Anti-CCK activity IC50” value in assay [2] was determined as 0.06 µg/mL. In assay [3], the ED50 was more than 100 mg/kg and the “Antigastrin activity (in words)” value was “completely inactive up to a dose of 100 mg/Kg”.

Regarding `O=C(O)CC[C@@H](NC(=O)c1cccc([N+](=O)[O-])c1)C(=O)N1CCC2(CCCC2)CC1` [Compound C14], the IC50 in assay [1] (setting [4]) was 8100 nM. Also, the ED50 in assay [3] was determined as 68 mg/kg.

Broadly, the IC50 is the concentration at which inhibition is half-maximal.
